# Source: patent US11185076B2 (priority 2017, dated 2021)
# Like-named read-outs stand apart in the source and are kept apart here.
# Columns and labels:
# [1] = tested on: cucumber mosaic virus (CMV); settings: for Number of CMV Infected Plants: Acute wilt / Number of CMV Infected Plants: Mosaic / Number of CMV Infected Plants: No Infection: 5 plants; for Number of CMV Infected Plants: Acute wilt / Number of CMV Infected Plants: Mosaic / Number of CMV Infected Plants: No Infection / Control value / Disease Severity index: drench 3 days before inoculation, g ai/10a: (a) 90, (b) 150, dinotefuran 120, thiamethoxam 60, (h) 250, mixtures 90 + 120 and 150 + 60; for phytotoxicity: cucumber (cultivar: Sagami-hanjiro); for control effect on cucumber mosaic virus (CMV) (in words): treatment on 3 day before inoculation
# [2] = tested on: cucumber mosaic virus (CMV); settings: for Control value / Disease Severity index / Number of CMV Infected Leaves: Acute wilt / Number of CMV Infected Leaves: Mosaic / Number of CMV Infected Leaves: No Infection: drench 1 day before inoculation; for Number of CMV Infected Leaves: Acute wilt / Number of CMV Infected Leaves: Mosaic / Number of CMV Infected Leaves: No Infection: 3 checked; for phytotoxicity: cucumber (cultivar: Sagami-hanjiro)
# [3] = tested on: tomato powdery mildew (Oidium neolycopersici); assay: Control test on tomato powdery mildew (soil incorporation test); type: in vivo
# Experimental: A tomato powdery mildew control test was performed in a greenhouse. A plastic pots having a diameter of 20 cm were used for the test. As test chemical agents, granules containing 3% of tolprocarb (compound (a)) (trade name; Sanblas (registered trademark) granules (Mitsui Chemical Agro Inc.)) commercially available and granules containing 5% of pyroquilon (compound (b)) (trade name: Coratop (registered trademark) granules (manufactured by Syngenta Japan Co., Ltd.)) were mixed to soil on the entire surface of the pot in an amount equivalent to 3 kg/10a. Also, the simplified emulsifiable concentrate E(c) containing the compound (c) was suspended in the distilled water, and was irrigated onto the entire surface of the pot to be incorporated. As the comparative example, granules (trade name: Oryzemate (registered trademark) granules (Meiji Seika Pharma Co., Ltd.)) containing 8% of probenazole (comparative compound (h)) was mixed to soil on the entire surface of the pot in an amount equivalent to 3 kg/10a. Tomato (cultivar: Ohgata-fukuju) grown up to 4-leaf stage of true leaf was planted in a plastic pots having a diameter of 20 cm and were treated with chemical agents. Plants were grown in a glass greenhouse and naturally occurring tomato powdery mildew (Oidium neolycopersici) was examined one month after chemical agent treatment. In the examination, an infection index of six leaves per pot was examined to calculate disease severity index. The control value was calculated from the disease severity index.
# The criteria for the degree of infection are as follows.
# 1: lesion area rate of less than 5%
# 2: lesion area rate from 5% to 25%
# 3: lesion area rate from 25% to 50%
# The severity index was calculated from the following equation. Severity index=((the number of compound leaves of infection index 0×0)+(the number of compound leaves of infection index 1×1)+(the number of compound leaves of infection index 2×2)+(the number of compound leaves of infection index 3×3)+(the number of compound leaves of infection index 4×4/(the number of compound leaves examined×4))×100
# [4] = tested on: Chinese cabbage soft rot bacteria (Erwinia carotovora subsp. carotovora); assay: Control test on Chinese cabbage soft rot (soil incorporation test); type: in vivo; settings: for phytotoxicity: Chinese cabbage plant (cultivar: Muso); for control effect on the Chinese cabbage soft rot (in words): whole soil incorporation at the time of planting
# Excerpt: Granules containing 3% of tolprocarb (a) (trade name; Sanblas (registered trademark) granules (manufactured by Mitsui Chemical Agro Co., Ltd.)), granules containing 5% of pyroquilon (b) (trade name; Coratop (registered trademark) granules (manufactured by Mitsui Chemical Agro Co., Ltd.)), granules containing 1.5% of simeconazole (fungicidal component) (trade name; Mongalite (registered trademark) granules (manufactured by Mitsui Chemical Agro Co., Ltd.)) and flowable containing 20% of penthiopyrad (fungicidal component) were respectively incorporated or were incorporated in combination into a pot soil in a predetermined amount. Then, the Chinese cabbage was planted in the pot soil. At 14 days after chemical agent treatment, the Chinese cabbage soft rot was inoculated. […] Thereafter, the inoculated plantes were put in a 25° C. greenhouse to promote infection for 2 days, and the control effect was examined. The infection was examined by the degree of infection, and the disease severity index was calculated based on the degree of infection. The control value was calculated from the disease severity index.
# Severity index=((the number of leaves of infection index 0×0)+(the number of leaves of infection index 1×1)+(the number of leaves of infection index 2×2)+(the number of leaves of infection index 3×3)/(the number of leaves examined×3)×100
# (§1) The synergistic effect was calculated from the following Colby's equation. Synergistic effect (expected value)=(control value of compound A+control value of compound B)−(control value of compound A×control value of compound B)/100
# (§2) When the control value exceeded the expected value in the case of mixing the compounds and applying the mixed product, it was determined that there was a synergistic effect.
# [5] = tested on: Rice Streak Virus (RSV); assay: Control test on rice streak virus (RSV) (field trial of nursery box application); type: in vivo, rice stripe virus; settings: for phytotoxicity: rice (cultivar: Hinohikari)
# Experimental: Rice seedlings (cultivar: Hinohikari) were grown in a greenhouse according to an ordinary procedure and transplanted to an open paddy field. Granules containing 4% of tolprocarb (a) and granules containing 6% of dinotefuran (insecticidal ingredient) formulated according to Formulation Example 2 were respectively treated or were treated in combination in 50 g per box in a nursery box on the day of transplantation. 35 days after transplantation, larvae of RSV-carrying small brown planthopper were released for one week to inoculate rice plants by sucking. At 79 days and 99 days after transplantation, the presence or absence of the unshooting of head was examined.
# [6] = tested on: tomato yellow leaf curl disease (TYLCV); assay: Control test on tomato yellow leaf curl disease (TYLCV) (soil drench test); type: in vivo, tomato yellow leaf curl virus; settings: for phytotoxicity: tomato (cultivar: Sekai-ichi); for control effect on tomato yellow leaf curl disease (TYLCV) (in words): treatment on 7 day before inoculation
# Experimental: Granules containing 3% of tolprocarb (a) (trade name; Sanblas (registered trademark) granules (manufactured by Mitsui Chemical Agro Co., Ltd.)), granules containing 5% of pyroquilon (b) (trade name; Coratop (registered trademark) granules (manufactured by Syngenta Japan Ltd.)) and granules containing 1% of dinotefran (trade name; Starkle (registered trademark) granules (manufactured by Mitsui Chemicals Agro Co., Ltd.)) were respectively treated or were treated in combination to plant foot of tomato in a predetermined amount. Seven days after chemical agent treatment, the plants were inoculated by sucking of one adult of TYLCV-carrying tobacco whitefly biotype Q per plant for 3 days. Thereafter, the inoculated plants were put in the greenhouse to promote infection, and the control effect was examined after the infection. The infection was examined by the degree of infection, and the disease severity index was calculated based on the degree of infection. The control value was calculated from the disease severity index.
# 1: observation of initial infection (delayed infection)
# 2: observation of infection Severity index=((the number of plants of infection index 0×0)+(the number of plants of infection index 1×1)+(the number of plants of infection index 2×2)/(the number of plants examined×2))×100
# as §1, §2
# [7] = Total of plots, g ai/10a: (a) 90, (b) 150, (c) 90, (h) 240
# [8] = Total, one month after treatment, g ai/10a: (a) 90, (b) 150, (c) 90, (h) 240
# [9] = plot I, g ai/10a: (a) 90, (b) 150, (c) 90, (h) 240
# [10] = plot II, g ai/10a: (a) 90, (b) 150, (c) 90, (h) 240
# [11] = plot III, g ai/10a: (a) 90, (b) 150, (c) 90, (h) 240
smiles,measurement,setting,value
"CN1COCN(Cc2cnc(Cl)s2)/C1=N\[N+](=O)[O-] [Thiamethoxam, thiamethoxam]",Number of CMV Infected Plants: Acute wilt,[1],1
same,Number of CMV Infected Plants: Mosaic,[1],3
same,Number of CMV Infected Plants: No Infection,[1],1
same,phytotoxicity,[1],not observed
same,Control value,[1],44.4
same,Disease Severity index,[1],50.0
"C=CCOC1=NS(=O)(=O)c2ccccc21 [Probenazole (h), probenazole]",Number of CMV Infected Plants: Acute wilt,[1],0
same,Number of CMV Infected Plants: Mosaic,[1],2
same,Number of CMV Infected Plants: No Infection,[1],3
same,phytotoxicity,[1],not observed
same,Control value,[1],77.8
same,Disease Severity index,[1],20.0
"CSC(=O)c1cccc2nnsc12 [Acibenzolar-S-methyl (i), acibenzolar S methyl, reference compound]",Control value,[2]; 250 g ai/10a,50.0
same,Disease Severity index,[2]; 250 g ai/10a,50.0
same,Number of CMV Infected Leaves: Acute wilt,[2]; 250 g ai/10a,0
same,Number of CMV Infected Leaves: Mosaic,[2]; 250 g ai/10a,3
same,Number of CMV Infected Leaves: No Infection,[2]; 250 g ai/10a,0
same,phytotoxicity,[2],not observed
"Cc1cccc2sc3nncn3c12 [Tricyclazole (c), tricyclazole]",Infection index 0 (number of leaves),[3]; [7],8
same,Infection index 1 (number of leaves),[3]; [7],8
same,Infection index 2 (number of leaves),[3]; [7],2
same,Infection index 3 (number of leaves),[3]; [7],0
same,Infection index 4 (number of leaves),[3]; [7],0
same,Control value,[3]; [8],66.7
same,Disease Severity index,[3]; [8],16.7
same,Infection index 0 (number of leaves),[3]; [9],0
same,Infection index 1 (number of leaves),[3]; [9],5
same,Infection index 2 (number of leaves),[3]; [9],1
same,Infection index 3 (number of leaves),[3]; [9],0
same,Infection index 4 (number of leaves),[3]; [9],0
same,Infection index 0 (number of leaves),[3]; [10],5
same,Infection index 1 (number of leaves),[3]; [10],1
same,Infection index 2 (number of leaves),[3]; [10],0
same,Infection index 3 (number of leaves),[3]; [10],0
same,Infection index 4 (number of leaves),[3]; [10],0
same,Infection index 0 (number of leaves),[3]; [11],3
same,Infection index 1 (number of leaves),[3]; [11],2
same,Infection index 2 (number of leaves),[3]; [11],1
same,Infection index 3 (number of leaves),[3]; [11],0
same,Infection index 4 (number of leaves),[3]; [11],0
same,phytotoxicity,"[3]; tomato (cultivar: Ohgata-fukuju), g ai/10a: (a) 90, (b) 150, (c) 90, (h) 240",not observed
same,control effect on tomato powdery mildew (in words),[3]; whole soil incorporation,excellent control effect
"CC(C)CC(C)c1sccc1NC(=O)c1cn(C)nc1C(F)(F)F (stereo not drawn) [penthiopyrad, reference compound]",phytotoxicity,[4],not observed
"Cc1ccc(C(=O)NC[C@@H](NC(=O)OCC(F)(F)F)C(C)C)cc1 [Tolprocarb (a), tolprocarb]",phytotoxicity,[5],not observed
same,phytotoxicity,[6],not observed
same,control effect on tomato yellow leaf curl disease (TYLCV) (in words),[6],excellent control effect
same,phytotoxicity,[4],not observed
same,control effect on the Chinese cabbage soft rot (in words),[4],excellent control effect
same,Number of CMV Infected Plants: Acute wilt,[1],0
same,Number of CMV Infected Plants: Mosaic,[1],3
same,Number of CMV Infected Plants: No Infection,[1],2
same,phytotoxicity,[1],not observed
same,Control value,[1],66.7
same,Disease Severity index,[1],30.0
same,control effect on cucumber mosaic virus (CMV) (in words),[1],excellent control effect
same,Control value,[2]; 22.5 g ai/10a,66.7
same,Disease Severity index,[2]; 22.5 g ai/10a,33.3
same,Number of CMV Infected Leaves: Acute wilt,[2]; 22.5 g ai/10a,1
same,Number of CMV Infected Leaves: Mosaic,[2]; 22.5 g ai/10a,0
same,Number of CMV Infected Leaves: No Infection,[2]; 22.5 g ai/10a,2
same,Control value,[2]; 45 g ai/10a,16.7
same,Disease Severity index,[2]; 45 g ai/10a,83.3
same,Number of CMV Infected Leaves: Acute wilt,[2]; 45 g ai/10a,2
same,Number of CMV Infected Leaves: Mosaic,[2]; 45 g ai/10a,1
same,Number of CMV Infected Leaves: No Infection,[2]; 45 g ai/10a,0
same,Control value,[2]; 90 g ai/10a,50.0
same,Disease Severity index,[2]; 90 g ai/10a,50.0
same,Number of CMV Infected Leaves: Acute wilt,[2]; 90 g ai/10a,1
same,Number of CMV Infected Leaves: Mosaic,[2]; 90 g ai/10a,1
same,Number of CMV Infected Leaves: No Infection,[2]; 90 g ai/10a,1
same,phytotoxicity,[2],not observed
same,control effect on cucumber mosaic virus (CMV) (in words),[2]; treatment on 1 day before inoculation,excellent control effect
"O=C1CCc2cccc3c2N1CC3 [Pyroquilon (b), pyroquilon]",phytotoxicity,[6],not observed
same,control effect on tomato yellow leaf curl disease (TYLCV) (in words),[6],excellent control effect
same,phytotoxicity,[4],not observed
same,control effect on the Chinese cabbage soft rot (in words),[4],excellent control effect
same,Number of CMV Infected Plants: Acute wilt,[1],0
same,Number of CMV Infected Plants: Mosaic,[1],4
same,Number of CMV Infected Plants: No Infection,[1],1
same,phytotoxicity,[1],not observed
same,Control value,[1],55.6
same,Disease Severity index,[1],40.0
same,control effect on cucumber mosaic virus (CMV) (in words),[1],excellent control effect
"C[Si](C)(C)CC(O)(Cn1cncn1)c1ccc(F)cc1 (stereo not drawn) [simeconazole, reference compound]",phytotoxicity,[4],not observed
"CN/C(=N/CC1CCOC1)N[N+](=O)[O-] (stereo not drawn) [Dinotefuran, dinotefuran]",control effect on the rice stripe blight (RSV) (in words),[5]; nursery box application,effect of delaying the occurrence of the unshooting of head
same,phytotoxicity,[5],not observed
same,phytotoxicity,[6],not observed
same,Number of CMV Infected Plants: Acute wilt,[1],2
same,Number of CMV Infected Plants: Mosaic,[1],2
same,Number of CMV Infected Plants: No Infection,[1],1
same,phytotoxicity,[1],not observed
same,Control value,[1],33.3
same,Disease Severity index,[1],60.0
